The text below walks through data of US20050089473A1, “Potassium channel mediated delivery of agents through the blood-brain barrier” (Cedars-Sinai Medical Center, priority 2003, published 2005).

Values joined by “and” are separate entries in the source; they are usually repeats but may differ in a detail not shown here. Identical values can stand only once. Like-named read-outs stand apart in the source and are kept apart here. Ends that are not written are not given here.

For data set [1] the following is noted: cited from earlier work.
The target in data set [2] is T1, soluble guanylyl cyclase (Bos taurus, UniProt P16068+P19687).
T1 sequence (P16068 1-619): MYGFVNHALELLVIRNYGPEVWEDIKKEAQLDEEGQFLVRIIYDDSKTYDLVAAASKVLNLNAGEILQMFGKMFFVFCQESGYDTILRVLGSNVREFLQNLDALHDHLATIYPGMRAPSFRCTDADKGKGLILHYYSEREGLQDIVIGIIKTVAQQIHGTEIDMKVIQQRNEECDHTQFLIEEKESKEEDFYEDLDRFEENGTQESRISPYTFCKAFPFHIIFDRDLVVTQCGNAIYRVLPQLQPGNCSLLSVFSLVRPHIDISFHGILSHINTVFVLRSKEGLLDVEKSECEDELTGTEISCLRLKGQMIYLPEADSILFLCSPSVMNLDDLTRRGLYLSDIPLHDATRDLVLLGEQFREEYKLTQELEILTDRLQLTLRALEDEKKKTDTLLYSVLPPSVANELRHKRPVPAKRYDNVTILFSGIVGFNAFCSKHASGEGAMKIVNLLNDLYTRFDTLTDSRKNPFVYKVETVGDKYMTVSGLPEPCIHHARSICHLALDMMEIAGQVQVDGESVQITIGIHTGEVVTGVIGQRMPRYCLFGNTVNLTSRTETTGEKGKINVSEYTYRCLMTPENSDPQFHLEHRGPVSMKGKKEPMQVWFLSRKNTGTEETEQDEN
T1 sequence (P19687 1-691): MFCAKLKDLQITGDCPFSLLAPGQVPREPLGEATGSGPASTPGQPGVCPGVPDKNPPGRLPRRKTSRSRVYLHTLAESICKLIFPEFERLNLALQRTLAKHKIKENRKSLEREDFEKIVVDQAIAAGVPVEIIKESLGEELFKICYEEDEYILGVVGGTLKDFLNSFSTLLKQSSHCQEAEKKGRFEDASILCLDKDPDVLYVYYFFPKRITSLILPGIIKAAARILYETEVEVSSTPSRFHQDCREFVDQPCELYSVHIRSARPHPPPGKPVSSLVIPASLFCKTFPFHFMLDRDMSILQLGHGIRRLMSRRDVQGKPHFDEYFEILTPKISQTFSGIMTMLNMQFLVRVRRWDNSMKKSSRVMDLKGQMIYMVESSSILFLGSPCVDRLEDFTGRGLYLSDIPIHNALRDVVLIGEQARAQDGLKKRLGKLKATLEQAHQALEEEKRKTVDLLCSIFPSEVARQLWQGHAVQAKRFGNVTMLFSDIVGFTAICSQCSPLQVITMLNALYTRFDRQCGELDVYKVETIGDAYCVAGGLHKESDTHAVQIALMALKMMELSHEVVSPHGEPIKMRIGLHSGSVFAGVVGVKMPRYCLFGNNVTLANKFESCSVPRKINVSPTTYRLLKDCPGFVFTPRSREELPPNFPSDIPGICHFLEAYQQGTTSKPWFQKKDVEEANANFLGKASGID
As to conditions: cited from earlier work.

The conditions of data set [3]: cited from earlier work. The source holds these as a separate data set.
Data set [4] concerns intracranial RG2 tumors. The data set can be described thus: Survival study, rats with intracranial RG2 tumors. The class given is in vivo, rat. How it is done:
Wistar rats with implanted intracranial tumors were used to study the effect of MS on increased carboplatin delivery and survival. RG2 cells (1×10^5) were implanted intracranially to form a tumor (2 mm in size) in rats within a week. After a week, rats were given saline, carboplatin (5 mg/kg) or carboplatin after 15 min of MS (30 μg/kg/min for 15 min) infusion through an exteriorized catheter once a day for three consecutive days. The rats were carefully monitored for mortality and clinical signs due to brain tumor growth for 90 days or until death, whichever came first. Brains of dead, moribund or those rats that survived beyond 90 days were removed, frozen and cryosectioned for histological evaluation, in order to compare tumor volumes between treated and untreated groups. Kaplan-Meier analysis was performed to determine the statistical significance of the results.

The test system of data set [5] is intracerebral RG2 tumors. The data set can be described thus: In vivo BTB permeability (Ki by quantitative autoradiography) in RG2 tumor-bearing rats. As to conditions: data not shown. The arrangement: species or system rat.
Data set [6] deals with KATP channels. The data set can be described thus: Membrane potential assay of KATP channel activity. The format is cell-based, human. As to conditions: RBEC, HBMVEC, RG2 and GBM cells. As for the experimental part: Functional activities of putative KATP channels in HBMVEC and GBM cells were measured by detecting changes in voltage across the cell membrane as described earlier (Ningarsj, N. S., Rao, M., Hashizume, K., Asotra, K., and Black, K. L. Regulation of blood-brain tumor barrier permeability by calcium-activated potassium channels J. Pharmacol. Exp. Ther., 301:838-851, 2002). A membrane potential assay kit (Molecular Devices, Sunnyvale, Calif.) provided a fast, simple and consistent mix-and-read procedure. In brief, HBMVEC and GBM cells obtained from cell passages 2-5 was suspended in 5 ml of growth medium. In two separate experiments, the cell density was adjusted to 1×10^3 cells/well and coated in sterile, clear bottom, blank 96-well plates (Corning, Inc., Acton, Mass.), pre-coated with poly L-Lysine, and allowed to achieve a monolayer within 24 h. The monolayer cells were incubated with the membrane potential assay kit reagents for 30 min and read directly by FLEXstation. The anionic pchemiometric dye that traverses between cells and the extracellular solution in a membrane potential-dependent manner serves as an indicator of vasomodulator-induced voltage changes across the cell membrane. […] Additionally, the effects of the optimum dose (10 μM) of MS and glibenclamide (100 nM) on KATP channels activity in HBMVEC and GBM cells were determined.

Data set [7] relates to intracranial human glial tumors. The experiment in a line: Survival study, nude mice with intracranial human glial tumors. The class given is in vivo, mouse. As to conditions: i.v., three consecutive doses for three days. As for the experimental part:
GBM-xenograft rat and mouse models were developed by intracranially implanting primary GBM cells isolated from patient brain tumor tissue. […] To investigate whether MS administration by intracarotid (i.c.) and intravenous (i.v.) routes, increases BTB permeability to different tracers, and enhances delivery to brain tumor, permeability studies were performed.
Nude mice were intracranially implanted with cells. The tumor was allowed to grow for 7 days before treatment was initiated.

For `CC(=O)NC(C(=O)O)C(C)(C)SN=O` (racemic) [SNAP, S-nitroso-N-acetyl-D,L-penicillamine], the “Half-life (t1/2) of NO donor” value in data set [1] is 1980 to 2460 min. Regarding `[C-]#[O+]` [CO, Carbon monoxide], in data set [2] (in the presence of YC-1), the “Increase in soluble guanylyl cyclase activity” value was more than 100 fold. As to `CCN(CC)N(O)N=O.CCNCC` [DEA/NO, N-ethylethanamine: 1,1-diethyl-2-hydroxy-2-nitrosohydrazine (1:1)], in data set [1], the “Half-life (t1/2) of NO donor” value was 2 to 4 min. As for `NCCN(CCN)N(O)N=O` [DETA/NO, 2,2′-hydroxynitrosohydrazino]bis-ethanamine], in data set [1], the “Half-life (t1/2) of NO donor” value is listed as “about 20 hours”.

Turning to `[N]=O` [NO, Nitric oxide], the “Increase of vMax of sGC” value in data set [2] was 100-200 fold. On to `O=c1[nH]c2cc(C(F)(F)F)ccc2n1-c1cc(C(F)(F)F)ccc1O` [NS-1619, 1,3-dihydro-1-[2-hydroxy-5-(trifluoromethyl)phenyl]-5-(trifluoromethyl)-2H-benzimidazol-2-one], for which, in data set [3] (i.c. infusion of low doses), the “Effect on CBF in tumor and normal brain” value is given as “did not alter CBF”.

`CCCN(CCCN)N(O)N=O` [PAPA/NO, 3-(2-hydroxy-2-nitroso-1-propylhydrazino)-1-propanamine]: the “Half-life (t1/2) of NO donor” value in data set [1] is given as “about 15 minutes”. For `NCCCNCCCCN(CCCN)N(O)N=O` [SPER/NO, N-(4-[1-(3-aminopropyl)-2-hydroxy-2-nitroso-hydrazino]-butyl)-1,3-propanediamine], the “Half-life (t1/2) of NO donor” value in data set [1] was 34 to 40 min. In data set [4] (RG2 tumor rats, i.c. once a day for three days, carboplatin 5 mg/kg, MS 30 μg/kg/min for 15 min), `N.N.O=C([O-])C1(C(=O)[O-])CCC1.[Pt+2]` [carboplatin] registered a Mean survival of 55.46 ± 5.71 days. Also, in data set [4] (coronal brain sections), the Mean tumor size is 5.30±1.9 mm^2 and 5.30±1.2 mm^2.

As to `COc1ccc(Cl)cc1C(=O)NCCc1ccc(S(=O)(=O)NC(=O)NC2CCCCC2)cc1` [glibenclamide], the “BBB or BTB permeability, glibenclamide infused alone or prior to MS” value in data set [5] was “did not affect BBB or BTB permeability”. Further, in data set [6], the “Membrane potential dye fluorescence intensity” value is “reversed”. `Cn1nnc2c(C(N)=O)ncn2c1=O` [temodor] returned a Mean survival in data set [7] of 25.5 ± 6.3 days. RPPGFSPFR [BK]: in data set [3] (rat, in vivo), the “Effect on CBF in tumor and normal brain” value is “did not alter CBF”.
